Laboratory results published in patent US10239868B2, “5-hydroxytryptamine receptor 7 activity modulators and their method of use” (TEMPLE UNIVERSITY OF THE COMMONWEALTH SYSTEM OF HIGHER …, priority 2013, dated 2019).

Target: Serotonin 5HT7 receptors (Homo sapiens (Human), UniProt P34969)
Assay: Radiolabel Binding Studies for Serotonin 5HT7 receptors;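 further: displacement of a tritiated radioligand from membranes of stably transfected cells carrying recombinant 5-HT7 receptor, with filter-bound radioactivity measured by scintillation counting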
Settings: read-out: 5-HT7 % inhib @ 10 uM
Protocol: Radiolabel Binding Studies for Serotonin 5HT7 Receptors, Method 1:
Eleven dilutions (5× assay concentration) of the compound of the disclosure and chlorpromazine are prepared in the Assay Buffer by serial dilution to yield final corresponding assay concentrations ranging from 10 pM to 10 μM.
A stock concentration of 5 nM [^3H]LSD (lysergic acid diethyl amide) is prepared in 50 mM Tris-HCl, 10 mM MgCl2, 1 mM EDTA, pH 7.4 (Assay Buffer). Aliquots (50 μl) of radioligand are dispensed into the wells of a 96-well plate containing 100 μl of Assay Buffer. Duplicate 50-μl aliquots of the compound of the disclosure test and chlorpromazine positive control reference compound serial dilutions are added.
Membrane fractions of cells expressing recombinant 5HT7 receptors (50 μL) are dispensed into each well. The membranes are prepared from stably transfected cell lines expressing 5HT7 receptors cultured on 10-cm plates by harvesting PBS-rinsed monolayers, resuspending and lysing in chilled, hypotonic 50 mM Tris-HCl, pH 7.4, centrifuging at 20,000×g, decanting the supernatant and storing at −80° C.; the membrane preparations are resuspended in 3 ml of chilled Assay Buffer and homogenized by several passages through a 26 gauge needle before using in the assay.
The 250-μl reactions are incubated at room temperature for 1.5 hours, then harvested by rapid filtration onto 0.3% polyethyleneimine-treated, 96-well filter mats using a 96-well Filtermate harvester. Four rapid 500-μl washes are performed with chilled Assay Buffer to reduce non-specific binding. The filter mats are dried, then scintillant is added to the filters and the radioactivity retained on the filters is counted in a Microbeta scintillation counter.
Raw data (dpm) representing total radioligand binding (i.e., specific+non-specific binding) are plotted as a function of the logarithm of the molar concentration of the competitor (i.e., test or reference compound).

Serotonin 5HT7 receptors, sequence (P34969 whole entry): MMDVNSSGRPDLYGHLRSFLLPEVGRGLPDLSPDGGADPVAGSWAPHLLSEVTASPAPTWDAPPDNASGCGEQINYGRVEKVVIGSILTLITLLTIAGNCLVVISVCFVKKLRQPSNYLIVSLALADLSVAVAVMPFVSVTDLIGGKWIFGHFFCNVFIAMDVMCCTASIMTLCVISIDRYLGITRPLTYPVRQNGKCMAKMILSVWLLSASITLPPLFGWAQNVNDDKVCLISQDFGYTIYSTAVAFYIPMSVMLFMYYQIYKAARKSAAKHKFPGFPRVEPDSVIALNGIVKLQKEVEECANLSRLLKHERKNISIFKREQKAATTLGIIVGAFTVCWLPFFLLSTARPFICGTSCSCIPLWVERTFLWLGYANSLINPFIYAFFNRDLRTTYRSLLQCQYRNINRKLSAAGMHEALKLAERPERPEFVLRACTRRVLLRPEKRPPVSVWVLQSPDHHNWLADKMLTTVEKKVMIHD

| SMILES | inhibition at 10 µM [%] |
| --- | --- |
| CCC1(CC)CC(CCN2CCN(c3ccc(O)cc3)CC2)OC1=O (stereo not shown) [Entry 1] | 95.9 |
| CCC1(CC)CC(CCN2CCN(c3ccc([N+](=O)[O-])cc3)CC2)OC1=O (stereo not shown) [Entry 2] | 93.3 |
| CCC1(CC)CC(CCN2CCN(c3ccc(C#N)cc3)CC2)OC1=O (stereo not shown) [Entry 3] | 88.4 |
| CCC1(CC)CC(CCN2CCN(c3ccc(C)cc3)CC2)OC1=O (stereo not shown) [Entry 4] | 96.6 |
| CCC1(CC)CC(CCN2CCN(CCc3ccccc3)CC2)OC1=O (stereo not shown) [Entry 5] | 53.1 |
| CCC1(CC)CC(CCN2CCN(c3ccccc3O)CC2)OC1=O (stereo not shown) [Entry 6] | 99.9 |
| CCC1(CC)CC(CCN2CCN(c3cccc(OC)c3)CC2)OC1=O (stereo not shown) [Entry 7] | 94.8 |
| CCC1(CC)CC(CCN2CCN(c3cccc(O)c3)CC2)OC1=O (stereo not shown) [Entry 8] | 93.6 |
| CCC1(CC)CC(CCN2CCN(c3ccccn3)CC2)OC1=O (stereo not shown) [Entry 9] | 101 |
| CCC1(CC)CC(CCN2CCN(c3c(C)cccc3C)CC2)OC1=O (stereo not shown) [Entry 10] | 70.4 |
| CCC1(CC)CC(CCN2CCN(c3ccccc3)CC2)OC1=O (stereo not shown) [Entry 11] | 95.4 |
| CCC1(CC)CC(CCN2CCN(c3ccc(N)cc3)CC2)OC1=O (stereo not shown) [Entry 12] | 80.9 |
| CCC1(CC)CC(CCN2CCN(C3CCCCC3)CC2)OC1=O (stereo not shown) [Entry 13] | 82.5 |
| CCC1(CC)CC(CCN2CCN(c3ccccc3C(C)C)CC2)OC1=O (stereo not shown) [Entry 14] | 54.3 |
| CCC1(CC)CC(CCN2CCN(C(c3ccccc3)c3ccccc3)CC2)OC1=O (stereo not shown) [Entry 15] | 58.4 |
| CCC1(CC)CC(CCN2CCN(c3ccccc3C)CC2)OC1=O (stereo not shown) [Entry 16] | 58.2 |
| CCC1(CC)CC(CCN2CCN(c3ccc(C)cc3C)CC2)OC1=O (stereo not shown) [Entry 17] | 56.2 |
| CCC1(CC)CC(CCN2CCc3ccccc3C2)OC1=O (stereo not shown) [Entry 18] | 82 |
| COc1ccc(N2CCN(CCC3CC4(CCCCC4)C(=O)O3)CC2)cc1 (stereo not shown) [Entry 20] | 78.1 |
| O=C1OC(CCN2CCN(c3cccc(O)c3)CC2)CC12CCCCC2 (stereo not shown) [Entry 21] | 86.8 |
| O=C1OC(CCN2CCN(c3ccccc3)CC2)CC12CCCCC2 (stereo not shown) [Entry 22] | 98 |
| COc1cccc(N2CCN(CCC3CC4(CCCCC4)C(=O)O3)CC2)c1 (stereo not shown) [Entry 23] | 93.7 |
| COc1ccccc1N1CCN(CCC2CC3(CCCCC3)C(=O)O2)CC1 (stereo not shown) [Entry 24] | 90.7 |

| SMILES | inhibition at 10 µM [%] |
| --- | --- |
| O=C1OC(CCN2CCN(c3ccccc3O)CC2)CC12CCCCC2 (stereo not shown) [Entry 25] | 93.3 |
| O=C1OC(CCN2CCN(c3ccccn3)CC2)CC12CCCCC2 (stereo not shown) [Entry 26] | 97.4 |
| O=C1OC(CCN2CCN(c3ccccc3Cl)CC2)CC12CCCCC2 (stereo not shown) [Entry 27] | 97 |
| O=C1OC(CCN2CCN(c3ccc(Cl)cc3)CC2)CC12CCCCC2 (stereo not shown) [Entry 28] | 98 |
| O=C1OC(CCN2CCN(c3ccc(C(F)(F)F)cc3)CC2)CC12CCCCC2 (stereo not shown) [Entry 29] | 96 |
| O=C1OC(CCN2CCN(c3ccncc3)CC2)CC12CCCCC2 (stereo not shown) [Entry 30] | 46.5 |
| O=C1OC(CCN2CCN(c3ccc(O)cc3)CC2)CC12CCCCC2 (stereo not shown) [Entry 31] | 54.1 |
| O=C1OC(CCN2CCN(c3cccnc3)CC2)CC12CCCCC2 (stereo not shown) [Entry 32] | 76.3 |
| N#Cc1ccc(N2CCN(CCC3CC4(CCCCC4)C(=O)O3)CC2)cc1 (stereo not shown) [Entry 33] | 83.4 |
| N#Cc1ccc(N2CCN(CCC3CC4(CCCCC4)C(=O)O3)CC2)nc1 (stereo not shown) [Entry 34] | 64.2 |
| O=C1OC(CCN2CCN(c3ccc(C(F)(F)F)cn3)CC2)CC12CCCCC2 (stereo not shown) [Entry 35] | 91.1 |
| O=C1OC(CCN2CCN(c3ccc(Cl)cn3)CC2)CC12CCCCC2 (stereo not shown) [Entry 36] | 96.7 |
| CCC1(CC)CC(CCN2CCC(C(O)(c3ccccc3)c3ccccc3)CC2)OC1=O (stereo not shown) [Entry 37] | 69 |
| CCC1(CC)CC(CCN2CCC(=C(c3ccccc3)c3ccccc3)CC2)OC1=O (stereo not shown) [Entry 38] | 96.5 |
| CC(C)c1ccccc1N1CCN(CCC2CC3(CCCC3)C(=O)O2)CC1 (stereo not shown) [Entry 39] | 96.1 |
| CC(C)(C)c1ccccc1N1CCN(CCC2CC3(CCCC3)C(=O)O2)CC1 (stereo not shown) [Entry 40] | 81.7 |
| CC(C)c1cccc(C(C)C)c1N1CCN(CCC2CC3(CCCC3)C(=O)O2)CC1 (stereo not shown) [Entry 41] | 25.2 |
| O=C1OC(CCN2CCN(c3ccccc3N3CCOCC3)CC2)CC12CCCC2 (stereo not shown) [Entry 42] | 97.2 |
| CCC1(CC)CC(CCN2CCN(c3ccccc3OC)CC2)OC1=O (stereo not shown) [Entry 43] | 95.3 |
| Cc1ccc(N2CCN(CC3CC(c4ccccc4)(c4ccccc4)C(=O)O3)CC2)cc1 (stereo not shown) [Entry 44] | 40.8 |
| Cc1ccc(N2CCN(CCC3CC(c4ccccc4)(c4ccccc4)C(=O)O3)CC2)cc1 (stereo not shown) [Entry 45] | 97.4 |
| Cc1ccc(N2CCN(CCCC3CC(c4ccccc4)(c4ccccc4)C(=O)O3)CC2)cc1 (stereo not shown) [Entry 46] | 96.8 |
| CCC1(CC)CC(CCN2CCC(c3ccccc3)CC2)OC1=O (stereo not shown) [Entry 47] | 29.3 |
